Experimental findings from ChEMBL document CHEMBL4613209, “Quinolone hybrids and their anti-cancer activities: An overview” (Eur J Med Chem, 2019) are described below.

One assay deals with NCI-H460. The assay is described as follows: Growth inhibition of human NCI-H460 cells. The assay is classed as functional. The note with it: pooled result: one value given for 3 cell lines, strains, targets or settings.
In another assay the test system is MDA-MB-231. The assay is described as follows: Growth inhibition of human MDA-MB-231 cells after 48 hrs by SRB assay. The assay is classed as functional. As to conditions: MDA-MB-231, 48 h.
For the next assay, the system named is SiHa. The assay can be described thus: Growth inhibition of human SiHa cells after 48 hrs by SRB assay. The assay is classed as functional.
The next assay deals with PC-3. The assay is described as follows: Antiproliferative activity against human PC3 cells by CCK8 assay. The assay is classed as functional, cell-based.
The subject of assay [1] is A549. The assay is described as follows: Antiproliferative activity against human A549 cells by CCK8 assay. The assay is classed as functional, cell-based.
Assay [2] has as its system MCF7. The assay is described as follows: Antiproliferative activity against human MCF7 cells by CCK8 assay. The assay is classed as functional, cell-based.
Assay [3] concerns HepG2. The assay can be described thus: Antiproliferative activity against human HepG2 cells by CCK8 assay. The assay is classed as functional, cell-based.
The target of a further assay is Tubulin. The assay is described as follows: Inhibition of tubulin polymerization (unknown origin). The assay is classed as protein-complex assay, Homo sapiens.
The subject of another assay is MCF-10A. The assay is described as follows: Antiproliferative activity against human MCF10A cells by CCK8 assay. The assay is classed as cell-based.
A further assay addresses Histone deacetylase. The assay is described as follows: Inhibition of HDAC (unknown origin). The assay is classed as protein assay, Homo sapiens.
In the next assay the test system is HeLa. The assay is described as follows: Antiproliferative activity against human HeLa cells by CCK8 assay. The assay is classed as functional, cell-based.
In assay [4] the test system is HT-29. The assay is described as follows: Cytotoxicity against human HT-29 cells assessed as reduction in cell viability. The assay is classed as functional, cell-based.
The subject of assay [5] is B16-F10. The assay can be described thus: Cytotoxicity against mouse B16F10 cells assessed as reduction in cell viability. The assay is classed as functional, cell-based.
Assay [6] concerns P388. The assay can be described thus: Cytotoxicity against doxorubicin resistant mouse P388 cells assessed as reduction in cell viability. The assay is classed as functional, cell-based.
Assay [7] relates to P388. The assay is described as follows: Anticancer activity against mouse P388 cells. The assay is classed as functional, cell-based.
Assay [8] has as its system A549. The assay is described as follows: Anticancer activity against human A549 cells. The assay is classed as functional, cell-based.
A further assay relates to HCT-8. The assay can be described thus: Anticancer activity against human HCT8 cells. The assay is classed as functional, cell-based.
Assay [9] has as its system Lewis lung carcinoma cell line. The assay can be described thus: Anticancer activity against mouse LLC cells. The assay is classed as functional, cell-based.
In assay [10] the test system is MCF7. The assay can be described thus: Anticancer activity against human MCF7 cells. The assay is classed as functional, cell-based.
Assay [11] deals with P388. The assay is described as follows: Cytotoxicity against mouse P388 cells assessed as reduction in cell viability. The assay is classed as functional, cell-based.
Assay [12] relates to P388. The assay can be described thus: Anticancer activity against doxorubicin resistant mouse P388 cells. The assay is classed as functional, cell-based.
Assay [13] relates to B16-F10. The assay is described as follows: Anticancer activity against mouse B16F10 cells. The assay is classed as functional, cell-based.
The subject of assay [14] is A549. The assay is described as follows: Cytotoxicity against human A549 cells assessed as reduction in cell viability. The assay is classed as functional, cell-based.
Assay [15] relates to HT-29. The assay is described as follows: Anticancer activity against human HT-29 cells. The assay is classed as functional, cell-based.
The test system of assay [16] is HT-29. The assay is described as follows: Anticancer activity against human HT-29 cells by MTT assay. The assay is classed as functional, cell-based.
A further assay deals with HL-60. The assay is described as follows: Anticancer activity against human HL60 cells by MTT assay. The assay is classed as functional, cell-based.
Assay [17] deals with HepG2. The assay can be described thus: Anticancer activity against human HepG2 cells by MTT assay. The assay is classed as functional, cell-based.

≈ marks a conversion by molar mass, not a printed value.

With `O=c1[nH]c2ccccc2c2[nH]c(-c3ccccc3)c(-c3ccccc3)c12`, the GI50 with NCI-H460 was determined as 27500 nM.
Regarding `CCn1cc(C(=O)O)c(=O)c2cnc(N3CCN(C(=O)CCSc4nnnn4-c4ccc(F)c(F)c4F)CC3)nc21`, the GI50 with MDA-MB-231 and in the assay with SiHa was no more than 100 nM throughout.
Regarding `C[C@H]1COc2c(N3CCN(C)CC3)c(F)cc3c(=O)c(C(=O)OCc4cn(CCCCCCC(=O)NO)nn4)cn1c23`, the IC50 in the assay on PC-3 was 300 to 12800 nM; with A549 [1], 300 to 12800 nM; in the assay with MCF7 [2] it was 300 to 12800 nM; in the assay on HepG2 [3] it was 300 to 12800 nM; at Tubulin it was 1790 to 6360 nM; with MCF-10A it was greater than 100000 nM. Moreover, the figures for the IC50 against Histone deacetylase and in the assay with HeLa were 21 to 850 nM and 300 to 12800 nM, respectively.
As for `Cc1ccc(NC2CCN(C3C(F)=Cc4c5n(cc(C(=O)O)c4=O)-c4ccccc4OC53)C2)cc1` (stereo not given), the IC50 lay in the range of 0.011 to 0.59 µg/mL (≈ 0.0232 to 1.25 µM) in the assay with HT-29 [4]; 0.011 to 0.59 µg/mL (≈ 0.0232 to 1.25 µM) in the assay with B16-F10 [5]; 0.011 to 0.59 µg/mL (≈ 0.0232 to 1.25 µM) in the assay with P388 [6]; 30 to 490 nM with P388 [7]; 30 to 490 nM in the assay on A549 [8]; 30 to 490 nM in the assay with HCT-8. The IC50 fell in the range of 30 to 490 nM in assay [9]; 30 to 490 nM with MCF7 [10]; 0.011 to 0.59 µg/mL (≈ 0.0232 to 1.25 µM) with P388 [11]; 30 to 490 nM in the assay with P388 [12]; 30 to 490 nM with B16-F10 [13]; 0.011 to 0.59 µg/mL (≈ 0.0232 to 1.25 µM) in the assay with A549 [14]. This compound also yielded an IC50 in the assay on HT-29 [15] of 30 to 490 nM.
For the compound `CCOC(=O)c1cn(Cc2cn(-c3ccc(Cl)cc3)nn2)c2ccc(C)cc2c1=O`, the IC50 with HT-29 [16], in the assay with HL-60 and in the assay with HepG2 [17] was 13100 to 88400 nM in each case.
With `Cc1cccc(C)c1NC1CCN(C2C(F)=Cc3c4n(cc(C(=O)O)c3=O)-c3ccccc3OC42)C1` (stereo not given), the IC50 in the assay on HT-29 [4] lay in the range of 0.011 to 0.59 µg/mL (≈ 0.0226 to 1.21 µM); in the assay on B16-F10 [5], 0.011 to 0.59 µg/mL (≈ 0.0226 to 1.21 µM); with P388 [6], 0.011 to 0.59 µg/mL (≈ 0.0226 to 1.21 µM); with P388 [7], 30 to 490 nM; in the assay with A549 [8], 30 to 490 nM; in the assay with HCT-8, 30 to 490 nM. Besides, the IC50 in assay [9] lay in the range of 30 to 490 nM; with MCF7 [10], 30 to 490 nM; with P388 [11] it was 0.011 to 0.59 µg/mL (≈ 0.0226 to 1.21 µM); in the assay with P388 [12] it was 30 to 490 nM; in the assay with B16-F10 [13] it was 30 to 490 nM; with A549 [14], 0.011 to 0.59 µg/mL (≈ 0.0226 to 1.21 µM). The IC50 in the assay on HT-29 [15] was 30 to 490 nM.
For the compound `O=c1[nH]c2ccccc2c2[nH]c3ccccc3c12`, in the assay with NCI-H460, the 50% growth inhibitory concentration (GI50) was 19000 nM.
With `COc1ccc2c(c1)[nH]c(=O)c1c3ccccc3oc21`, in the assay on NCI-H460, the GI50 is 10700 to 53700 nM.
Take `O=c1[nH]c2ccccc2c2[nH]cc(-c3ccccc3)c12`: the 50% growth inhibitory concentration (GI50) in the assay with NCI-H460 amounted to 18200 nM.
As for `NC1CCN(C2C(F)=Cc3c4n(cc(C(=O)O)c3=O)-c3ccccc3OC42)C1` (stereo not given), the IC50 fell in the range of 0.011 to 0.59 µg/mL (≈ 0.0287 to 1.54 µM) with HT-29 [4]; 0.011 to 0.59 µg/mL (≈ 0.0287 to 1.54 µM) in the assay on B16-F10 [5]; 0.011 to 0.59 µg/mL (≈ 0.0287 to 1.54 µM) with P388 [6]; 30 to 490 nM in the assay with P388 [7]; 30 to 490 nM in the assay on A549 [8]; 30 to 490 nM in the assay on HCT-8. Moreover, the IC50 lay within 30 to 490 nM in assay [9]; 30 to 490 nM in the assay on MCF7 [10]; 0.011 to 0.59 µg/mL (≈ 0.0287 to 1.54 µM) in the assay on P388 [11]; 30 to 490 nM in the assay with P388 [12]; 30 to 490 nM in the assay on B16-F10 [13]; 0.011 to 0.59 µg/mL (≈ 0.0287 to 1.54 µM) in the assay with A549 [14]. Further, the IC50 with HT-29 [15] lay in the range of 30 to 490 nM.
Take `C[C@H]1COc2c(N3CCN(C)CC3)c(F)cc3c(=O)c(C(=O)OCc4cn(CCCCCC(=O)NO)nn4)cn1c23`: the IC50 was 300 to 12800 nM with PC-3; 300 to 12800 nM in the assay with A549 [1]; 300 to 12800 nM in the assay with MCF7 [2]; 300 to 12800 nM with HepG2 [3]; 1790 to 6360 nM against Tubulin; greater than 100000 nM in the assay on MCF-10A. Besides, the values for the IC50 against Histone deacetylase and in the assay on HeLa were 21 to 850 nM and 300 to 12800 nM, respectively.
As for `O=C(O)c1cn2c3c(c1=O)C=C(F)C(N1CCC(Nc4ccccc4)C1)C3Oc1ccccc1-2` (stereo not given), the concentration for half-maximal inhibition (IC50) is 0.011 to 0.59 µg/mL (≈ 0.0239 to 1.28 µM) in the assay with HT-29 [4]; 0.011 to 0.59 µg/mL (≈ 0.0239 to 1.28 µM) with B16-F10 [5]; 0.011 to 0.59 µg/mL (≈ 0.0239 to 1.28 µM) with P388 [6]; 30 to 490 nM in the assay on P388 [7]; 30 to 490 nM in the assay on A549 [8]; 30 to 490 nM in the assay on HCT-8. Moreover, the IC50 in assay [9] is 30 to 490 nM; in the assay on MCF7 [10], 30 to 490 nM; in the assay on P388 [11] it was 0.011 to 0.59 µg/mL (≈ 0.0239 to 1.28 µM); in the assay on P388 [12] it was 30 to 490 nM; in the assay on B16-F10 [13], 30 to 490 nM; with A549 [14], 0.011 to 0.59 µg/mL (≈ 0.0239 to 1.28 µM). The half-inhibitory concentration (IC50) in the assay with HT-29 [15] lay within 30 to 490 nM.
As for `COc1ccc(NC2CCN(C3C(F)=Cc4c5n(cc(C(=O)O)c4=O)-c4ccccc4OC53)C2)cc1` (stereo not given), the IC50 with HT-29 [4] is 0.011 to 0.59 µg/mL (≈ 0.0225 to 1.21 µM); in the assay with B16-F10 [5], 0.011 to 0.59 µg/mL (≈ 0.0225 to 1.21 µM); in the assay with P388 [6], 0.011 to 0.59 µg/mL (≈ 0.0225 to 1.21 µM); in the assay on P388 [7] it was 30 to 490 nM; with A549 [8], 30 to 490 nM; with HCT-8 it was 30 to 490 nM. The IC50 in [9] fell in the range of 30 to 490 nM; in the assay on MCF7 [10], 30 to 490 nM; with P388 [11], 0.011 to 0.59 µg/mL (≈ 0.0225 to 1.21 µM); with P388 [12], 30 to 490 nM; in the assay with B16-F10 [13] it was 30 to 490 nM; in the assay on A549 [14], 0.011 to 0.59 µg/mL (≈ 0.0225 to 1.21 µM). The IC50 in the assay with HT-29 [15] was 30 to 490 nM.
For `CCn1cc(C(=O)O)c(=O)c2cnc(N3CCN(C(=O)CCSc4nnnn4Cc4ccccc4)CC3)nc21`, the GI50 in the assay on MDA-MB-231 and with SiHa was no more than 100 nM each time.
As to `CCOC(=O)c1cn(Cc2cn(-c3ccc(Cl)cc3)nn2)c2ccc(Cl)cc2c1=O`, the IC50 in the assay with HT-29 [16], in the assay on HL-60 and with HepG2 [17] was 13100 to 88400 nM each time.
